What was measured:
Assay type in all cases: in vivo
soybean (Glycine max) = assay: Test B pre-/postemergence plant response
How it was run: (§1)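 Response scores were assigned visually after 13 to 15 days in a greenhouse, comparing treated pots with controls on a 0–100 scale where 100 denotes complete control. Preemergence treatments went onto freshly seeded loam/sand soil; postemergence treatments onto plants 2 to 18 cm tall.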

[1] = test system: velvetleaf (Abutilon theophrasti); assay: Test B pre-/postemergence plant response
How it was run: as §1

[2] = test system: Surinam grass (Brachiaria decumbens); assay: Test B pre-/postemergence plant response
How it was run: as §1

[3] = test system: wheat (Triticum aestivum); assay: Test B pre-/postemergence plant response
How it was run: as §1

wild oat (Avena fatua) = assay: Test B pre-/postemergence plant response
How it was run: as §1

[4] = test system: pigweed (Amaranthus retroflexus); assay: Test B pre-/postemergence plant response
How it was run: as §1

kochia (Kochia scoparia) = assay: Test B pre-/postemergence plant response
How it was run: as §1

[5] = test system: blackgrass (Alopecurus myosuroides); assay: Test B pre-/postemergence plant response; details: for Blackgrass plant response rating (0 to 100 scale): 0 is no effect
How it was run: as §1

[6] = test system: lambsquarters (Chenopodium album); assay: Test B pre-/postemergence plant response
How it was run: as §1

[7] = test system: cocklebur (Xanthium strumarium); assay: Test B pre-/postemergence plant response
How it was run: as §1

[8] = test system: chickweed (Stellaria media); assay: Test B postemergence plant response
How it was run: (§2)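 Visual ratings from 0 (no effect) to 100 (complete control), made against controls 13–15 days after treatment, kept in a greenhouse. Compounds were applied postemergence to potted plants at the 1- to 4-leaf stage (2–18 cm).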

[9] = test system: windgrass (Apera spica-venti); assay: Test B postemergence plant response
How it was run: as §2

[10] = test system: canarygrass (Phalaris minor); assay: Test B postemergence plant response
How it was run: as §2

[11] = 31 g ai/ha, postemergence, scale 0 to 100, 0 is no effect, 100 is complete control
[12] = 62 g ai/ha, postemergence, 0 is no effect, 100 is complete control, 13 to 15 days
[13] = Postemergence, 250 g ai/ha, scale 0 to 100 (0 no effect, 100 complete control)
[14] = 62 g ai/ha, postemergence, 100 is complete control, 13 to 15 days
[15] = Postemergence, 125 g ai/ha, visual rating after 13 to 15 days, scale 0 (no effect) to 100 (complete control)
[16] = 250 g ai/ha, Preemergence, 0 to 100 scale
[17] = Postemergence, 62 g ai/ha, scale 0 (no effect) to 100 (complete control), 13 to 15 days
[18] = Preemergence, 31 g ai/ha, scale 0 to 100 (0 no effect, 100 complete control)
[19] = Preemergence, 125 g ai/ha, 0 to 100 scale
[20] = Postemergence, 250 g ai/ha, scale 0 to 100
[21] = Postemergence, 31 g ai/ha, scale 0 to 100 (0 no effect, 100 complete control)
[22] = Preemergence, 62 g ai/ha, scale 0 to 100 (0 no effect, 100 complete control)
[23] = Postemergence, 31 g ai/ha, 0 to 100 scale (0 no effect, 100 complete control)
[24] = Postemergence, 125 g ai/ha, scale 0 to 100 (0 no effect, 100 complete control)
[25] = Postemergence, 250 g ai/ha, scale 0 to 100 (0 no effect, 100 complete control), 13 to 15 days

CC(C)n1c(-c2ccccc2)ncc(C(=O)C2=C(O)CCCC2=O)c1=O [Compound 95]
70: Plant response rating, Surinam Grass [2, 13] | Plant response rating, Cocklebur [7, 11]
98: Soybean plant response rating (0 to 100 scale) (soybean (Glycine max); [12]) | Plant response rating, Soybean (soybean (Glycine max); [13]) | Pigweed plant response rating (0 to 100 scale) [4, 12] | Lambsquarters plant response rating (0 to 100 scale) [6, 12] | Plant response rating, Chickweed [8, 15]
85: Plant response rating, Velvetleaf [1, 11] | Plant response rating, Pigweed [4, 11] | Chickweed plant response rating (0 to 100 scale) [8, 12]
100: Plant response rating, Velvetleaf [1, 13] | Plant response rating, Pigweed [4, 13] | Kochia plant response rating (0 to 100 scale) (kochia (Kochia scoparia); [12]) | Plant response rating, Kochia (kochia (Kochia scoparia); [13]) | Plant response rating, Lambsquarters [6, 13] | Plant response rating, Cocklebur [7, 15] | Plant response rating, Cocklebur [7, 13] | Plant response rating, Chickweed [8, 13]
80: Plant response rating, Kochia (kochia (Kochia scoparia); [11]) | Plant response rating, Lambsquarters [6, 11]
45: Plant response rating, Surinam Grass [2, 11] | Surinam Grass plant response rating (0 to 100 scale) [2, 12]
95: Plant response rating, Soybean (soybean (Glycine max); [11]) | Velvetleaf plant response rating (0 to 100 scale) [1, 12] | Cocklebur plant response rating (0 to 100 scale) [7, 12]
75: Plant response rating, Chickweed [8, 11]
5: Plant response rating, Blackgrass [5, 13]
0: Plant response rating, Wheat [3, 11] | Wheat plant response rating (0 to 100 scale) [3, 12] | Plant response rating, Wheat [3, 13] | Plant response rating, Oat, Wild (wild oat (Avena fatua); [11]) | Oat, Wild plant response rating (0 to 100 scale) (wild oat (Avena fatua); [12]) | Plant response rating, Oat, Wild (wild oat (Avena fatua); [13]) | Plant response rating, Blackgrass [5, 11] | Blackgrass plant response rating (0 to 100 scale) [5, 14] | Plant response rating, Blackgrass [5, 15] | Plant response rating, Windgrass [9, 11] | Windgrass plant response rating (0 to 100 scale) [9, 12] | Plant response rating, Windgrass [9, 13] | Plant response rating, Canarygrass [10, 11] | Canarygrass plant response rating (0 to 100 scale) [10, 12] | Plant response rating, Canarygrass [10, 15] | Plant response rating, Canarygrass [10, 13]

Cc1cccc(Cl)c1-n1c(-c2ccccc2)ncc(C(=O)C2=C(O)CCCC2=O)c1=O [Compound 46]
100: Plant response rating, Pigweed [4, 16] | Plant response rating, Lambsquarters [6, 16]
65: Plant response rating, Velvetleaf [1, 16]
30: Kochia plant response rating (kochia (Kochia scoparia); [20])
25: Plant response rating, Soybean (soybean (Glycine max); [16])
5: Plant response rating, Oat, Wild (wild oat (Avena fatua); [17]) | Plant response rating, Blackgrass [5, 17]
90: Plant response rating, Soybean (soybean (Glycine max); [15]) | Plant response rating, Surinam Grass [2, 16] | Plant response rating, Lambsquarters [6, 15] | Plant response rating, Lambsquarters [6, 18] | Plant response rating, Lambsquarters [6, 22] | Cocklebur plant response rating [7, 20]
20: Plant response rating, Oat, Wild (wild oat (Avena fatua); [15]) | Plant response rating, Kochia (kochia (Kochia scoparia); [15])
95: Pigweed plant response rating [4, 19] | Lambsquarters plant response rating [6, 20] | Lambsquarters plant response rating [6, 19] | Plant response rating, Chickweed [8, 17] | Plant response rating, Chickweed [8, 15]
75: Plant response rating, Surinam Grass [2, 17] | Surinam Grass plant response rating [2, 19] | Plant response rating, Pigweed [4, 17] | Plant response rating, Cocklebur [7, 21]
0: Plant response rating, Soybean (soybean (Glycine max); [18]) | Plant response rating, Velvetleaf [1, 18] | Plant response rating, Surinam Grass [2, 18] | Plant response rating, Wheat [3, 16] | Plant response rating, Wheat [3, 17] | Plant response rating, Wheat [3, 15] | Plant response rating, Wheat [3, 18] | Wheat plant response rating [3, 19] | Plant response rating, Oat, Wild (wild oat (Avena fatua); [16]) | Plant response rating, Oat, Wild (wild oat (Avena fatua); [18]) | Oat, Wild plant response rating (wild oat (Avena fatua); [19]) | Plant response rating, Kochia (kochia (Kochia scoparia); [17]) | Plant response rating, Blackgrass [5, 16] | Plant response rating, Blackgrass [5, 21] | Plant response rating, Blackgrass [5, 18] | Plant response rating, Blackgrass [5, 22] | Blackgrass plant response rating [5, 19] | Plant response rating, Cocklebur [7, 18] | Plant response rating, Cocklebur [7, 22] | Cocklebur plant response rating [7, 19] | Plant response rating, Canarygrass [10, 21] | Plant response rating, Canarygrass [10, 17] | Plant response rating, Canarygrass [10, 15] | Canarygrass plant response rating [10, 20]
85: Plant response rating, Velvetleaf [1, 15] | Plant response rating, Pigweed [4, 18] | Plant response rating, Lambsquarters [6, 17]
80: Plant response rating, Soybean (soybean (Glycine max); [17]) | Plant response rating, Velvetleaf [1, 17] | Plant response rating, Surinam Grass [2, 15] | Plant response rating, Pigweed [4, 15] | Plant response rating, Cocklebur [7, 17] | Plant response rating, Cocklebur [7, 15] | Plant response rating, Chickweed [8, 21]
15: Soybean plant response rating (soybean (Glycine max); [19]) | Plant response rating, Cocklebur [7, 16] | Plant response rating, Windgrass [9, 15]
55: Velvetleaf plant response rating [1, 19]
98: Chickweed plant response rating [8, 20]
10: Plant response rating, Blackgrass [5, 15] | Blackgrass plant response rating [5, 20] | Plant response rating, Windgrass [9, 17]

O=C1CCCC(O)=C1C(=O)c1cnc(-c2cc(F)cc(F)c2)n(C2CCCCC2)c1=O [Compound 181]
50: Plant response rating, Wheat [3, 24] | Plant response rating, Canarygrass [10, 23]
65: Plant response rating, Oat, Wild (wild oat (Avena fatua); [23]) | Plant response rating, Kochia (kochia (Kochia scoparia); [23]) | Plant response rating, Windgrass [9, 25]
40: Plant response rating, Wheat [3, 23] | Plant response rating, Windgrass [9, 23]
0: Plant response rating, Blackgrass [5, 23]
60: Plant response rating, Windgrass [9, 24]
15: Plant response rating, Blackgrass [5, 24] | Plant response rating, Blackgrass [5, 25]
100: Plant response rating, Soybean (soybean (Glycine max); [23]) | Plant response rating, Soybean (soybean (Glycine max); [24]) | Plant response rating, Soybean (soybean (Glycine max); [25]) | Plant response rating, Velvetleaf [1, 23] | Plant response rating, Velvetleaf [1, 24] | Plant response rating, Velvetleaf [1, 25] | Plant response rating, Surinam Grass [2, 25] | Plant response rating, Oat, Wild (wild oat (Avena fatua); [25]) | Plant response rating, Pigweed [4, 23] | Plant response rating, Pigweed [4, 24] | Plant response rating, Pigweed [4, 25] | Plant response rating, Kochia (kochia (Kochia scoparia); [24]) | Plant response rating, Kochia (kochia (Kochia scoparia); [25]) | Plant response rating, Lambsquarters [6, 23] | Plant response rating, Lambsquarters [6, 24] | Plant response rating, Lambsquarters [6, 25] | Plant response rating, Cocklebur [7, 23] | Plant response rating, Cocklebur [7, 24] | Plant response rating, Cocklebur [7, 25] | Plant response rating, Chickweed [8, 23] | Plant response rating, Chickweed [8, 24] | Plant response rating, Chickweed [8, 25]
5: Blackgrass plant response rating (0 to 100 scale) [5, 14]
95: Plant response rating, Surinam Grass [2, 24]
90: Plant response rating, Oat, Wild (wild oat (Avena fatua); [24]) | Plant response rating, Canarygrass [10, 25]
85: Plant response rating, Canarygrass [10, 24]
70: Plant response rating, Surinam Grass [2, 23] | Plant response rating, Wheat [3, 25]
